According to patent US20240342161A1, “BISBENZYLISOQUINOLINES AS CONDITIONING AGENTS FOR IMMUNE THERAPY” (priority 2023, published 2024):
Several values for one entry are separate records, joined by “and”; a condition that tells them apart may be missing. Identical values can stand only once.

Columns and labels:
β-catenin = β-catenin protein level in K562 cell extracts by western blot; format: cell-based, human
Experimental: The second portion was to quantitate the levels of β-catenin protein by western blot. TET's ability in an in vitro assay to reduce β-catenin expression was tested in human erythroleukemic (K562) cells. Testing was conducted by Alamo Laboratories, San Antonia, TX.
Briefly, the method to quantitate β-catenin protein by western blot was as follows: Extracts of K562 cells (untreated and treated with various concentrations of tetrandrine) were concentrated to 0.4 ml using Centricon-3 column to yield a protein concentration of approximately 2 mg/ml. Samples were mixed with 5× Laemmli buffer and loaded on 8-16% Tris-Glycine gradient gel, then polyacrylamide gel electrophoresis (PAGE) was run at 85 volts for 100 minutes at 6° C. and proteins were transferred on PVDF membrane at 70 Volts for 85 minutes at 8° C. Membrane was blocked with 5% milk in Tris-buffered Saline containing 0.1% TW-20 (TBST). Membrane was incubated with primary antibody for 18 hours at 4° C. followed by 3 washes, 5 minutes each, with TBST and incubated with secondary antibody in TBST for 2 hours at 25° C. The membrane was washed again with TBST as described above and incubated with ECL-2 substrate for 5 minutes and scanned on Kodak Image Station. After scan, blot was stripped of primary and secondary antibodies and re-probed with anti-beta Actin antibody as described above. Protein bands in WB images were quantitated using Molecular Imaging software pack MIS-4.0 software and tabulated in Excel spreadsheet.

CAMKII gamma = biological target: T1, CAMKII gamma (Homo sapiens, UniProt Q13555); assay: CAMKII gamma kinase activity (ADP Glo); format: biochemical; conditions: for units: duplicate reactions
T1 construct: purchased Promega V3531
Experimental: An enzymatic study was conducted to evaluate the inhibition of CAMKII gamma by ES-3000 (Tetrandrine). CAMKII gamma kinase activity was measured using […] purchased from Promega following the Promega protocol. CAMKII enzyme system purchased from Promega (V3531). ADP Glo was used for detection. Assay optimized for linearity of protein and time. Conditions for inhibitor screening 25 ng CAMKII, 20 min. incubations, inhibitor or DMSO (5%) at RT in 20 uL total volume. Inhibitor, ATP (10 or 50 μM), substrates and buffer added to tubes and reactions started with enzyme. […] Reactions terminated at 20 min. by adding ADP Glo reaction following manufactures instructions. All reactions were done in duplicate. Calculations of percent (%) inhibition determined by dividing the mean activity at each condition by the mean of the DMSO control times 100.

bcr-abl = assay: qPCR assay for bcr-abl in plucked CML colonies; format: cell-based, human; conditions: Secondary colonies, 10 μM, number of colonies; listed as Tetrandrine
Experimental: To determine whether a colony was normal (bcr-abl negative and abl positive) or diseased (bcr-abl and abl positive), a TaqMan®-based qPCR test was used. In order to score the colonies positive or negative, the following scoring strategy was performed. All colonies were assayed in duplicate for each target. If a singleton reaction yielded a Ct then the reaction scored a 1. If no Ct was recorded, a score of 0 was given. From here, we used a logic test to score the colonies into four different categories: bcr-abl and abl, abl only, bcr-abl only or both negative. In order to be placed in a category, a colony must score a 1 in both reactions. However, if a colony only scored a 1 for one out of the two reactions, this colony was removed from the analysis. […] Alternatively, if a colony scored a 1 in only both of the bcr-abl reactions or a 1 in only both the abl reactions, the colony was placed in the bcr-abl only or abl only category, respectively. If the colony scored a 0 for both targets (bcr-abl and abl) then the colony was placed in the both negative category.
In total 48 primary colonies and 31 secondary replated colonies were assessed for bcr-abl and abl using qPCR. […] Thirteen secondary colonies treated with Tetrandrine at 10 μM were assessed.

hERG = hERG (Homo sapiens, UniProt Q12809); assay: hERG inhibition, IonWorks HT electrophysiology in CHO cells stably transfected with hERG
P-glycoprotein (P-gp) = P-glycoprotein (P-gp) (Homo sapiens, UniProt P08183); conditions: cited from earlier work
[1] = test system: CML colonies, secondary clonal growth; assay: Replating assay (secondary clonal growth of CML colonies); format: cell-based, human; conditions: colonies from original cultures with ES-3000 @ 10 μM; 24 wells

T1 sequence (Q13555 whole entry): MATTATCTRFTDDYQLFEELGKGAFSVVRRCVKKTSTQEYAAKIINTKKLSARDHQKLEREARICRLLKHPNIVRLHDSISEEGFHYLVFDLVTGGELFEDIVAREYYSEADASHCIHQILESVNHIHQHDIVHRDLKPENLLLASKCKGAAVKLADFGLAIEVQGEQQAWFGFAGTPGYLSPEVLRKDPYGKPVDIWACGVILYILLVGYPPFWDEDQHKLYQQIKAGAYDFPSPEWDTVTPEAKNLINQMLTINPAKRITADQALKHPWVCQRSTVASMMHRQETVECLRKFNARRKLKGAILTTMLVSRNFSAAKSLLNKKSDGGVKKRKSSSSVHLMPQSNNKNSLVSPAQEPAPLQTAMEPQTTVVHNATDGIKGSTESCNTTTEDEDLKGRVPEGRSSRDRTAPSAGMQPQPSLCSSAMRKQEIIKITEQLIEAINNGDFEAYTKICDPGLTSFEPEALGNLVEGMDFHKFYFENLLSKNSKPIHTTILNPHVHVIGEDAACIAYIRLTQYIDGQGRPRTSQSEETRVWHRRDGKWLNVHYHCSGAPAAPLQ
hERG, sequence (Q12809 whole entry): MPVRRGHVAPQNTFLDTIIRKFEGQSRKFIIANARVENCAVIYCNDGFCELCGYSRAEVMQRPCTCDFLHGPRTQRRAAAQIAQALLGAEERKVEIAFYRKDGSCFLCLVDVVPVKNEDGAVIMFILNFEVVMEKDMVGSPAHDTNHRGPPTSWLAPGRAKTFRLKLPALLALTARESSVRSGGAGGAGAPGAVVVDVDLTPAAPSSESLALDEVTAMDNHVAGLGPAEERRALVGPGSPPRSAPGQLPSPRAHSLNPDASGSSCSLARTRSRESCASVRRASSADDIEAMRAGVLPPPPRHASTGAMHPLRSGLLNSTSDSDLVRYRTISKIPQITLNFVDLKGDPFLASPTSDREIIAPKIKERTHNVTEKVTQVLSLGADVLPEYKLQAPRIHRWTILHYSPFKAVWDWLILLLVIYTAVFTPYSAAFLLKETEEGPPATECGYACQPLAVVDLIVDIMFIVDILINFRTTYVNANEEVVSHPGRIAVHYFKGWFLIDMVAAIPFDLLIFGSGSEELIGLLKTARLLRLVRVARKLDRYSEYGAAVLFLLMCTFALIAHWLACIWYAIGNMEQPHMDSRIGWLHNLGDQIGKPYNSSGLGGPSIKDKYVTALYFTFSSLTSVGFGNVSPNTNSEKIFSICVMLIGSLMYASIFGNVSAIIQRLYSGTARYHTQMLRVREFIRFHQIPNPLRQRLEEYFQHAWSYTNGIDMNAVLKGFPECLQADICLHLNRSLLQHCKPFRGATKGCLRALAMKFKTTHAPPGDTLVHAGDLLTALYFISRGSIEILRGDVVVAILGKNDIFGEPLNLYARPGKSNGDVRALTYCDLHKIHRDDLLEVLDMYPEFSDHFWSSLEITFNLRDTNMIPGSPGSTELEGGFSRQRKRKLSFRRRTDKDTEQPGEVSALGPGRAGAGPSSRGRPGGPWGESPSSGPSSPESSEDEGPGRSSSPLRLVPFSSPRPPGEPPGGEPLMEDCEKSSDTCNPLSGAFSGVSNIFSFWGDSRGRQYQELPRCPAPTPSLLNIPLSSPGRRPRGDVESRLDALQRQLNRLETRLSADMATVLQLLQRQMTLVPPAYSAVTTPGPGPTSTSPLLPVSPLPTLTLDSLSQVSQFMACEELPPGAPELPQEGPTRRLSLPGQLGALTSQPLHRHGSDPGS
P-glycoprotein (P-gp), sequence (P08183 whole entry): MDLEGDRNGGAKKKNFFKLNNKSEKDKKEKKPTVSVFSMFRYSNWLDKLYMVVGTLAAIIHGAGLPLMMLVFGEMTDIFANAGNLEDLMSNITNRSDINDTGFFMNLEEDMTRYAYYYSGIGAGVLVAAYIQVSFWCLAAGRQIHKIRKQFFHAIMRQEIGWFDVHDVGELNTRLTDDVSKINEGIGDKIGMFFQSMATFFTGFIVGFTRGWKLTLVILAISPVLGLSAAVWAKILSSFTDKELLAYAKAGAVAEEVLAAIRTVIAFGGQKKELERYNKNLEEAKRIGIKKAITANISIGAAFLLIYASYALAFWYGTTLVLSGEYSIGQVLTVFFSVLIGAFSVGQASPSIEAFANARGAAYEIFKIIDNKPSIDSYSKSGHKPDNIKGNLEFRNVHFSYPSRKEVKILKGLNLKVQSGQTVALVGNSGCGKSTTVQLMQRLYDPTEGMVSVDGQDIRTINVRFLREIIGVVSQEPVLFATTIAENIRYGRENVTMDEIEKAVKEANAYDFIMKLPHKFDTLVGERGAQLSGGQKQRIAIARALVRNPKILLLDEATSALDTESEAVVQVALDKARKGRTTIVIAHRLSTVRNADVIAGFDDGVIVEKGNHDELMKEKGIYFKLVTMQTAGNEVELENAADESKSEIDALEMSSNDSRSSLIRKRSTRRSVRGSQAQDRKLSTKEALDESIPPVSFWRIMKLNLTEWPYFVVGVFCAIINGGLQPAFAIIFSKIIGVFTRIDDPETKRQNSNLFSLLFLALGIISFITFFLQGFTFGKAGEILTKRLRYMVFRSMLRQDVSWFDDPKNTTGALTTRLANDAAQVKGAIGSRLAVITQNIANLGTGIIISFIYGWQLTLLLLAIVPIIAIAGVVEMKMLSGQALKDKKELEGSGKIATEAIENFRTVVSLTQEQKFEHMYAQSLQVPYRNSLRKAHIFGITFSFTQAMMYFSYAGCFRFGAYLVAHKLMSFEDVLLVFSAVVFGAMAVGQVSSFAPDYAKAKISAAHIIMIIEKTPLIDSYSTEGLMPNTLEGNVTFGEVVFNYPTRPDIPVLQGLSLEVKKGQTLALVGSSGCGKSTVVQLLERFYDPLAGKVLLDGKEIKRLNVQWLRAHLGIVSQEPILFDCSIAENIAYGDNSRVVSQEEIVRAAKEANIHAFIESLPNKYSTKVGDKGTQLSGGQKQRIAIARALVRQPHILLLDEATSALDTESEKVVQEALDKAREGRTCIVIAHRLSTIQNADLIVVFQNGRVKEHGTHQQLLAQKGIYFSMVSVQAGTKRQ

6,6′,7,12-tetramethoxy-2,2′-dimethyl-berbaman [ES-3000]
β-catenin band (β-catenin; K562 cells treated with 0 to 10 uM): evident | convincing β-catenin band (β-catenin; K562 cells treated with 20 and 40 uM): absent | β-catenin level, result in words (β-catenin; K562 cells, 0 to 40 uM, 24 hours): lowers the β-catenin level in K562 cells in a dose dependent manner | mean (CAMKII gamma; 10 uM ATP, inhibitor 30 uM): 3.09 | units (CAMKII gamma; 10 uM ATP, inhibitor 30 uM): 2.75 units and 3.43 units | mean (CAMKII gamma; 10 uM ATP, inhibitor 100 uM): 2.87 | units (CAMKII gamma; 10 uM ATP, inhibitor 100 uM): 2.5 units and 3.24 units | mean (CAMKII gamma; 10 uM ATP, inhibitor 250 uM): 0.41 | units (CAMKII gamma; 10 uM ATP, inhibitor 250 uM): 0.34 units and 0.48 units | mean (CAMKII gamma; 50 uM ATP, inhibitor 30 uM): 10.55 | units (CAMKII gamma; 50 uM ATP, inhibitor 30 uM): 10.4 units and 10.7 units | mean (CAMKII gamma; 50 uM ATP, inhibitor 100 uM): 7.955 | units (CAMKII gamma; 50 uM ATP, inhibitor 100 uM): 8.81 units and 7.1 units | CAMKII gamma kinase activity inhibition, result in words (CAMKII gamma; 30-250 uM, 10 or 50 μM ATP): inhibited CAMKII gamma kinase activity in a dose dependent manner | bcr-abl and abl colonies (bcr-abl): No colonies scored positive for bcr-abl and abl | plasma levels above which QT prolongation might be expected in subjects (hERG; interpretation from hERG IC50 and protein binding): above 249 ng/mL | safety for cardiac conduction-related toxicity (hERG IC50 versus human Cmax) (hERG; utilizing Cmax from previous human clinical experience): 13 fold | substrate of P-gp (P-glycoprotein (P-gp)): not a substrate of P-gp | function of P-gp (P-glycoprotein (P-gp); without altering the protein expression level of Pgp): directly inhibits the function of P-gp in a dose-dependent manner | Replating colony count per well [1]: 1
